The results in this text go back to US8993594B2, “Isoquinolin-1(2H)-one derivatives as PARP-1 inhibitors” (Nerviano Medical Sciences S.R.L., priority 2009, dated 2015).

Series [1] has as its system hydrogen peroxide induced PAR formation in HeLa cells. In words: Cellular PAR assay (inhibition of hydrogen peroxide induced PAR formation). The settings on record: Homo sapiens, 0.1 mM hydrogen peroxide 15 min. The format is cell-based.
Protocol: Compounds potencies were evaluated by measuring the inhibition of poly (ADP-ribose) (PAR) chains formation as a marker for PARP-1 inhibition.
Cellular activity of PARP-1 inhibitors was assessed by measuring the inhibition of the hydrogen peroxide induced PAR formation in HeLa cells (ECACC). Cellular PAR levels were measured by immunocytochemistry and quantified using an ArrayScan vTi instrument (Cellomics Thermo Scientific).
Studies were performed as follows: 6000 cells/well were seeded in 96 well plates (Perkin Elmer) in MEM/10% FCS and incubated for 24 hours at 37° C., 5% carbon dioxide. Test compounds were then added at the required concentration for 30′. […] Concentration curves were prepared in MEM/10% FCS from compound stocks in DMSO and final DMSO concentration was 0.002% (v/v). Duplicate wells for each concentration point were prepared with a typical highest compound concentration of 20 μM and serial dilution 1:3. […] Non-specific binding sites were blocked by incubating wells for 30 min in PBS containing 5% (w/v) FBS 0.05% tween20. […] After washing further 3 times in PBS, cellular PAR immunoreactivity was assessed using the ArrayScan vTi instrument, with a Zeiss 10×0.5 N.A. objective, and applying the Cytotoxicity.V3 algorithm (Cellomics/Thermo Fisher) with a XF100 filter. At least 10 fields, corresponding to at least 900 cells, were read for each well.
The following formula is used: IC50=Bottom+(Top−Bottom)/(1+10^((Log EC50−X))); X is the logarithm of concentration. IC50 is the response; IC50 starts at Bottom and goes to Top with a sigmoid shape.
Series [2] concerns the target PARP-1 FL (Homo sapiens, UniProt P09874). Kind of series: Fluorescence polarization probe displacement assay. The settings on record: for DC50: half maximal displacement concentration. The series is classed as binding.
Protocol: (§1) Affinity of the tested compounds and their selectivity with respect to the different PARP isoforms of interest was quantified in a displacement assay.
(§2) In all of the experiments, the polarization signal was measured using a Saphire2 plate reader (Tecan). Data analysis was performed using Dynafit software. In particular, titration data were fitted to the following equilibria: Enzyme+probe <==> Complex Enzyme-probe, while displacement data were fitted to the following equilibria: Enzyme+probe <==> Complex Enzyme-probe, Enzyme+Compound <==> Complex Enzyme-Compound, whereby binding of probe and compound on the enzyme are mutually exclusive (pure competitive mechanism). Displacement data were also fitted using Excel spreadsheet (Microsoft Inc. Seattle, USA) to a four parameter logistic model (4PL), or Hill-Slope model to calculate DC50s where the DC50 value represents the compound concentration at which the polarization signal is diminished by 50% compared to untreated controls.
(§3) In agreement, affinity binding constants (KD) were determined by fitting with a pure competitive mechanism. KD values are the average of three independent experiments.
Series [3] in a line: Pharmacokinetics and oral bioavailability in the mouse. To be noted: for F on AUC: 10 mg/kg, ratio of oral to IV dose-normalized plasma AUC; for clearance / Vd / AUC / half-life: male, Balb Nu/Nu, plasma, mean value; for clearance / Vd: 10 mg/kg intravenous bolus; for clearance: read-out: CL(IV bolus); for Vd: read-out: Vdss (IV bolus); for AUC / half-life: 10 mg/kg oral; for half-life: read-out: T½ (oral) (converted). The format is in vivo.
Protocol: The compounds were formulated in 10% tween 80/dextrose for intravenous bolus administration while oral administrations were performed using the compounds formulated in 0.5% methylcellulose. A single administration at the dose of 10 mg/kg was given and three male animals for each route were used. […] Plasma samples were prepared by plasma proteins precipitation adding 200 µl of methanol to 10 µl of plasma in a 96 well plate. […] The supernatant was considered as final extract and injected onto the LC-MS-MS system (HPLC system: Hewlett Packard 1100 series using Atlantis HILIC Silica 50*2.1 mm 5.0 μM analytical column; MS instrument: Perkin Elmer SCIEX API 2000 and ionization performed with Turbo Ion Spray in positive ion mode). Lower limit of quantification is 5.0 ng/ml, upper limit of quantification is 10000 ng/ml. […] Non-compartmental method (linear trapezoidal rule and linear regression analysis of natural log-transformed plasma concentrations vs. time data) was used. After intravenous dosing, C0 was set equal to C0.083, Absolute bioavailability (F) was calculated from the ratio of average oral to IV (intravenous) dose-normalized plasma AUC (area under curve) values.

For series [4], the target named is T1, PARP-3 FL (Homo sapiens, UniProt Q9Y6F1).
T1 sequence (Q9Y6F1 1-533): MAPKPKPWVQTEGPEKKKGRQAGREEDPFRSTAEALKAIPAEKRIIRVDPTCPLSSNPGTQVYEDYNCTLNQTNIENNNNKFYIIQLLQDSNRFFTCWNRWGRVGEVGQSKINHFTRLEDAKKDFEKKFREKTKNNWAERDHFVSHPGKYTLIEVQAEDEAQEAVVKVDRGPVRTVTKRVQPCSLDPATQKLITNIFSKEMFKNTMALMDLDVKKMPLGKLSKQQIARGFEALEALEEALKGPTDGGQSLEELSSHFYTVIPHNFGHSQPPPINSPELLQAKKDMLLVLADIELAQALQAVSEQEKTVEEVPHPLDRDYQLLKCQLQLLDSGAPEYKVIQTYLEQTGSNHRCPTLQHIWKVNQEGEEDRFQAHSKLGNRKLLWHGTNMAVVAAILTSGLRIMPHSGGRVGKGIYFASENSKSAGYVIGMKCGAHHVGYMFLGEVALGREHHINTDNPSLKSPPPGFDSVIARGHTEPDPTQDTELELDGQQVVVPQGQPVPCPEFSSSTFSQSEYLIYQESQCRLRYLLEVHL
In words: Fluorescence polarization probe displacement assay. The series is classed as binding. The settings on record: compound P1 as the probe.
Protocol: as §1, §2, §3

For series [5], the target named is PARP-2 FL (Homo sapiens, UniProt Q9UGN5). In words: Fluorescence polarization probe displacement assay. The series is classed as binding. To be noted: for DC50: compound P1 as the probe.
Protocol: as §1, §2, §3

Where a name gives a salt, the structure may show the parent alone. Where only a bound is given, the exact number is not on record here.

Chain of PARP-1 FL (P09874 whole entry): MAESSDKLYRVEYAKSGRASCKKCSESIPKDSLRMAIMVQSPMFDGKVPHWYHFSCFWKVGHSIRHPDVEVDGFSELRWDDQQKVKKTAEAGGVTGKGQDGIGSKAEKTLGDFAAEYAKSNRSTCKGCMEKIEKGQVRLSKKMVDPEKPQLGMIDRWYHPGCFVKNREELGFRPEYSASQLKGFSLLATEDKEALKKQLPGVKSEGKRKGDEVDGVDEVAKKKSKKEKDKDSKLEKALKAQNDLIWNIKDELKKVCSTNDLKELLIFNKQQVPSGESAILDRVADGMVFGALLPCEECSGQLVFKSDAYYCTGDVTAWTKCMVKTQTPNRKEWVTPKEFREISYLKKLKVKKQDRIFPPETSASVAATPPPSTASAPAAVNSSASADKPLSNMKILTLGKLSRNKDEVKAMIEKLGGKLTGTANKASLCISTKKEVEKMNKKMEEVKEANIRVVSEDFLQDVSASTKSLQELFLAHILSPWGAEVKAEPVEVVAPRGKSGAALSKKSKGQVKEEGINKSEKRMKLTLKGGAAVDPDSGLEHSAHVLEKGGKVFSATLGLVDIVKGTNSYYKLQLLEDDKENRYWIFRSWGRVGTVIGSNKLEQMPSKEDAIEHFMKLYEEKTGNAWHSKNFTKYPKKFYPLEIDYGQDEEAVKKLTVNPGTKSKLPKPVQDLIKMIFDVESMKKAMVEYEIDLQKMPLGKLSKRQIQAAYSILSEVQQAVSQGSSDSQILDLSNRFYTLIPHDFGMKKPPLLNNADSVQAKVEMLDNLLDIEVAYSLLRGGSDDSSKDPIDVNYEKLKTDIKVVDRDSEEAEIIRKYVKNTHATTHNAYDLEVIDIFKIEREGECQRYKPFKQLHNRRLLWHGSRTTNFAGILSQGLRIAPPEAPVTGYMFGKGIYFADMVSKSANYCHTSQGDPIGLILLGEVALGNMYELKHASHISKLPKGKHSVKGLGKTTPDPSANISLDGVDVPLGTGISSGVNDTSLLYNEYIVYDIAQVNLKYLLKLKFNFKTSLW
Chain of PARP-2 FL (Q9UGN5 whole entry): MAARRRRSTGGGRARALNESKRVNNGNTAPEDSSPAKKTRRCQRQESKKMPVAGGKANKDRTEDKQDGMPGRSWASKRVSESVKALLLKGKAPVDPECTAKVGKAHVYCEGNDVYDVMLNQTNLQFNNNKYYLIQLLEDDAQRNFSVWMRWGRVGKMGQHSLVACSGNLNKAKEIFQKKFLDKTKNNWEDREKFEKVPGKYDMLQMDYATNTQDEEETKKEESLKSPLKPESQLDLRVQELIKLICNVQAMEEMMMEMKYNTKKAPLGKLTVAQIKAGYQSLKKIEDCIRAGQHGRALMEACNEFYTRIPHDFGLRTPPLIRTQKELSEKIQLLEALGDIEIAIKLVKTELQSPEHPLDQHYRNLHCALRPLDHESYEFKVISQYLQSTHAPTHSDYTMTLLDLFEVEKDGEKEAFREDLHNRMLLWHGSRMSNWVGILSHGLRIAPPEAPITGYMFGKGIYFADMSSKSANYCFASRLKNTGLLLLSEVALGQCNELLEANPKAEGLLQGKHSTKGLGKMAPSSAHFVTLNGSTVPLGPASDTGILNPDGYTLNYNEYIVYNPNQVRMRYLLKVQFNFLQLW

For the compound `COc1ccc(-c2[nH]c(=O)c3ccccc3c2OCCN)cc1.Cl` [Compound 24, 4-(2-Amino-ethoxy)-3-(4-methoxy-phenyl)-2H-isoquinolin-1-one hydrochloride], the IC50 in series [1] is 0.06 µM. In addition, in series [2], the Kd is below 0.03 µM and the DC50 amounted to 0.32 µM. Also, in series [3], the “F on AUC” value is on record as 50%, the clearance came out at 41.1 mL/min/kg, the Vd was 3 L/kg and the AUC was 6.97 µM·h. In addition, the half-life in series [3] is 2.71 h. The DC50 in series [4] is 0.37 µM.

For the compound `CNCCCOc1c(-c2ccccc2)[nH]c(=O)c2ccccc12.Cl` [Compound 12, 4-(3-Methylamino-propoxy)-3-phenyl-2H-isoquinolin-1-one hydrochloride], the midpoint of inhibition in series [1], the IC50, lay at 0.42 µM. Besides, in series [2], binding was characterised by a dissociation constant (Kd) of 0.05 µM and the DC50 was below 0.25 µM. In series [3], the “F on AUC” value came out at 17%, the clearance came to 177 mL/min/kg, the Vd is 3.3 L/kg and the AUC is 0.52 µM·h. Further, the half-life in series [3] was 1.19 h. In series [5], this compound yielded a Kd of 1.65 µM and a DC50 of 2.91 µM.

`CN1CCN(CCOc2c(-c3ccccc3)[nH]c(=O)c3cc(F)ccc23)CC1` [Compound 89, 7-fluoro-4-[2-(4-methylpiperazin-1-yl)ethoxy]-3-phenylisoquinolin-1(2H)-one trifluoroacetate] gave an IC50 in series [1] of 7.55 µM. The DC50 in series [2] is 0.4 µM; in series [5] it was above 10 µM; in series [4] it was 6.45 µM.

In series [1], `O=c1[nH]c(-c2cccc(Cl)c2)c(OCCCN2CCCCC2)c2ccccc12` [Compound 44, 3-(3-Chloro-phenyl)-4-(3-piperidin-1-yl-propoxy)-2H-isoquinolin-1-one] registered an IC50 of 0.13 µM. In addition, the Kd in series [2] is below 0.03 µM; in series [5] it was 0.4 µM. For the same compound, the DC50 in series [2] is below 0.25 µM; in series [5] it was 0.7 µM; in series [4], 1.23 µM.

`NCCOc1c(-c2ccsc2)[nH]c(=O)c2ccccc12` [Compound 29, 4-(2-Amino-ethoxy)-3-thiophen-3-yl-2H-isoquinolin-1-one hydrochloride]: the equilibrium dissociation constant (Kd) in series [2] is below 0.03 µM. In addition, the DC50 in series [2] was below 0.25 µM; in series [5], 0.54 µM; in series [4] it was 0.2 µM.

Regarding `O=c1[nH]c(-c2ccccc2)c(OC2CCNCC2)c2ccc(F)cc12` [Compound 85, 7-fluoro-3-phenyl-4-(piperidin-4-yloxy)isoquinolin-1(2H)-one hydrochloride], the values for the DC50 in series [2], in series [5] and in series [4] were 0.38 µM, 4.35 µM and 0.54 µM, respectively.

`NCCOc1c(-c2cccc(O)c2)[nH]c(=O)c2ccccc12` [Compound 32, 4-(2-Amino-ethoxy)-3-(3-hydroxy-phenyl)-2H-isoquinolin-1-one hydrochloride] displayed an IC50 in series [1] of 0.2 µM. Besides, the Kd is below 0.03 µM in series [2] and 0.45 µM in series [5]. Also, the DC50 in series [2] was below 0.25 µM; in series [5] it was 0.79 µM; in series [4], 0.28 µM.

Regarding `COc1ccc(-c2[nH]c(=O)c3ccccc3c2OCCCN2CCCCC2)cc1` [Compound 23, 3-(4-Methoxy-phenyl)-4-(3-piperidin-1-yl-propoxy)-2H-isoquinolin-1-one], the IC50 in series [1] worked out at 0.17 µM. In series [2], this compound gave a Kd below 0.03 µM and a DC50 below 0.25 µM. The DC50 in series [4] was determined as 0.48 µM.

On to `O=c1[nH]c(-c2cccc(O)c2)c(OCCCN2CCCCC2)c2ccc(F)cc12` [Compound 45, 7-Fluoro-3-(3-hydroxy-phenyl)-4-(3-piperidin-1-yl-propoxy)-2H-isoquinolin-1-one hydrochloride], for which inhibition in series [1] was half-maximal at 0.28 µM (IC50). For the same compound, the dissociation constant Kd in series [2] was below 0.03 µM; in series [5] it was 0.12 µM. The DC50 was below 0.25 µM in series [2], 0.42 µM in series [5] and 0.25 µM in series [4].

As to `O=c1[nH]c(-c2ccccc2)c(OCCCNCc2ccccc2)c2ccc(F)cc12` [Compound 87, 4-[3-(benzylamino)propoxy]-7-fluoro-3-phenylisoquinolin-1(2H)-one], the IC50 in series [1] amounted to 0.4 µM. Also, the values for the DC50 in series [2], in series [5] and in series [4] were below 0.25 µM, above 10 µM and 1.11 µM, respectively.

For the compound `CCN(CC)CCOc1c(-c2ccccc2)[nH]c(=O)c2cc(F)ccc12` [Compound 88, 4-[2-(diethylamino)ethoxy]-7-fluoro-3-phenylisoquinolin-1(2H)-one trifluoroacetate], in series [1], half-maximal inhibition (IC50) required 3.44 µM. The DC50 in series [2] was 1.59 µM; in series [5] it was 5.85 µM; in series [4], above 10 µM.

As for `NCCOc1c(-c2cccc(Cl)c2)[nH]c(=O)c2cc(F)ccc12` [Compound 50, 4-(2-Amino-ethoxy)-3-(3-chloro-phenyl)-7-fluoro-2H-isoquinolin-1-one hydrochloride], in series [1], half-maximal inhibition (IC50) required 0.08 µM. In series [2], this compound registered a Kd below 0.03 µM. Besides, the DC50 in series [2] is below 0.25 µM; in series [5] it was 3.3 µM; in series [4], 0.33 µM.

In series [1], `NCCCOc1c(-c2ccccc2)[nH]c(=O)c2cc(F)ccc12` [Compound 86, 4-(3-aminopropoxy)-7-fluoro-3-phenylisoquinolin-1(2H)-one hydrochloride] returned a 50% inhibitory concentration (IC50) of 0.54 µM. In addition, the DC50 in series [2] was below 0.25 µM; in series [5], 4.72 µM; in series [4], 0.33 µM.

For `COc1cccc(-c2[nH]c(=O)c3cc(F)ccc3c2OCCCN2CCCCC2)c1` [Compound 43, 7-Fluoro-3-(3-methoxy-phenyl)-4-(3-piperidin-1-yl-propoxy)-2H-isoquinolin-1-one hydrochloride], the IC50 in series [1] was found to be 0.09 µM. In addition, the Kd in series [2] came out at 0.04 µM; in series [5], 2.02 µM. Also, the DC50 is below 0.25 µM in series [2], 4.21 µM in series [5] and 2.52 µM in series [4].

As for `CN(C)CCOc1c(-c2ccccc2)[nH]c(=O)c2cc(F)ccc12` [Compound 84, 4-[2-(dimethylamino)ethoxy]-7-fluoro-3-phenylisoquinolin-1(2H)-one], 0.57 µM corresponded to half-maximal inhibition in series [1] (IC50). The figures for the DC50 in series [2], in series [5] and in series [4] were below 0.25 µM, 3.86 µM and 1.11 µM, respectively.

`COc1cccc(-c2[nH]c(=O)c3cc(F)ccc3c2OCCN)c1` [Compound 46, 4-(2-Amino-ethoxy)-7-fluoro-3-(3-methoxy-phenyl)-2H-isoquinolin-1-one hydrochloride] gave an IC50 in series [1] of 0.06 µM. Moreover, the results for the Kd in series [2] and in series [5] were below 0.01 µM and 3.61 µM, respectively. The DC50 was below 0.25 µM in series [2], 5.99 µM in series [5] and 0.37 µM in series [4].

In the case of `NCCOc1c(-c2ccc(O)cc2)[nH]c(=O)c2cc(F)ccc12` [Compound 28, 4-(2-Amino-ethoxy)-7-fluoro-3-(4-hydroxy-phenyl)-2H-isoquinolin-1-one hydrobromide], in series [1], half-maximal inhibition (IC50) required 0.4 µM. This compound also registered a Kd in series [2] below 0.03 µM. Besides, the DC50 in series [2] is below 0.25 µM; in series [5], 1.1 µM; in series [4], 0.47 µM.

On to `Cc1cccc2c(=O)[nH]c(-c3ccccc3)c(OCCN)c12` [Compound 49, 4-(2-Amino-ethoxy)-5-methyl-3-phenyl-2H-isoquinolin-1-one hydrochloride], for which the IC50 in series [1] came out at 0.09 µM. The compound further had a Kd in series [2] below 0.01 µM. The DC50 is below 0.25 µM in series [2], 0.97 µM in series [5] and 0.2 µM in series [4].

For `NCCOc1c(-c2cccc(O)c2)[nH]c(=O)c2cc(F)ccc12` [Compound 47, 4-(2-Amino-ethoxy)-7-fluoro-3-(3-hydroxy-phenyl)-2H-isoquinolin-1-one], the midpoint of inhibition in series [1], the IC50, lay at 0.1 µM. The same compound displayed a Kd in series [2] below 0.03 µM. Besides, the results for the DC50 in series [2], in series [5] and in series [4] were below 0.25 µM, 0.51 µM and 0.22 µM, respectively.

In series [1], `O=c1[nH]c(-c2ccc(O)cc2)c(OCCCN2CCCCC2)c2ccccc12` [Compound 27, 3-(4-Hydroxy-phenyl)-4-(3-piperidin-1-yl-propoxy)-2H-isoquinolin-1-one] displayed an IC50 of 0.25 µM. For the same compound, the results for the dissociation constant Kd in series [2] and in series [5] were below 0.03 µM and 0.33 µM, respectively. Besides, the DC50 in series [2] was below 0.25 µM; in series [5], 0.77 µM; in series [4], 0.55 µM.

`NCCOc1c(-c2ccc(O)cc2)[nH]c(=O)c2ccccc12` [Compound 26, 4-(2-Amino-ethoxy)-3-(4-hydroxy-phenyl)-2H-isoquinolin-1-one] had an IC50 in series [1] of 0.23 µM. For the same compound, the Kd in series [2] is below 0.01 µM; in series [5], 0.33 µM. The DC50 was below 0.25 µM in series [2], 0.68 µM in series [5] and 0.35 µM in series [4].
